23 molecules from US11306078B2, “Piperidine CXCR7 receptor modulators” (IDORSIA PHARMACEUTICALS LTD., priority 2016, dated 2022) can be followed below.

This assay addresses human chemokine receptor CXCR7 (Homo sapiens (Human), UniProt P25106). Nature of the assay: Tango CXCR7-bla U2OS beta-arrestin recruitment assay (beta-lactamase reporter, FRET), antagonism of CXCL12/SDF1-α.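 Further: compounds preincubated 15 min before CXCL12 addition, then 22 h at 37 °C, FRET emission ratio read with CCF4-AM substrate after 2 h.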 The note with it: antagonistic effect on CXCR7; Tango CXCR7-bla U2OS cells, CXCL12/SDF1-α at its EC80. The format is cell-based.

The term IC50 denotes the concentration that gives 50% inhibition. Low readings indicate inhibition by little substance, high ones a need for much substance.

Sequence of human chemokine receptor CXCR7 (P25106 whole entry): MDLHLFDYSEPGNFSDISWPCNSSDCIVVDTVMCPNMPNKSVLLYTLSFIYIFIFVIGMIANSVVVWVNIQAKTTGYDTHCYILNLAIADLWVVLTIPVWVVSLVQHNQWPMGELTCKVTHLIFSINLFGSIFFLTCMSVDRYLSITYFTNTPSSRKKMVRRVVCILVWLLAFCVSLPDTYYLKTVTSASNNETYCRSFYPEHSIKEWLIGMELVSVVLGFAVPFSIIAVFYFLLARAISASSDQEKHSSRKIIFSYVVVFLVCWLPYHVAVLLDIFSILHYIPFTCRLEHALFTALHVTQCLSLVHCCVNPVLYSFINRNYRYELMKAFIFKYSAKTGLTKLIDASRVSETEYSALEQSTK

Regarding `O=C(N[C@H]1CCN(CC2CC2)C[C@@H]1C(=O)N1CC[C@@H]1c1ncccn1)c1cc(-c2ccc(F)cc2F)on1` [Example 4.079a], 0.186 µM corresponded to half-maximal inhibition (IC50). Consider `O=C(N[C@@H]1CCN(CC2CC2)C[C@H]1C(=O)N1CC[C@@H]1c1ncccn1)c1cc(-c2ccc(F)cc2F)on1` [Example 4.079b], for which the IC50 is 0.018 µM. In turn, `CC(NC(=O)[C@H]1CN(CC2CC2)CC[C@@H]1NC(=O)c1cc(-c2ccc(F)cc2F)on1)c1ncccn1` (some centres unmarked) [Example 4.080a] showed a half-inhibitory concentration (IC50) of 0.851 µM. The figure for `CC(NC(=O)[C@@H]1CN(CC2CC2)CC[C@H]1NC(=O)c1cc(-c2ccc(F)cc2F)on1)c1ncccn1` (some centres unmarked) [Example 4.080b] is 0.015 µM; for `O=C(N[C@H]1CCN(CC2CC2)C[C@@H]1C(=O)NC1(c2cncnc2)CC1)c1cc(-c2ccc(F)cc2F)on1` [Example 4.081] it is 0.426 µM; for `O=C(N[C@H]1CCN(C2CCC2)C[C@@H]1C(=O)NC1(c2ncccc2F)CC1)c1cc(-c2ccc(F)cc2F)on1` [Example 4.082] it is 0.02 µM.

As to `CC(C)(NC(=O)[C@H]1CN(C2CCC2)CC[C@@H]1NC(=O)c1cc(-c2ccc(F)cc2F)on1)c1ncccn1` [Example 4.083], the IC50 worked out at 0.011 µM. In the case of `C[C@@H](NC(=O)[C@H]1CN(C2CCC2)CC[C@@H]1NC(=O)c1cc(-c2ccc(F)cc2F)on1)c1ncccn1` [Example 4.084], the IC50 was 0.232 µM. `C[C@@H](NC(=O)[C@H]1CN(C2CCC2)CC[C@@H]1NC(=O)c1cc(-c2ccc(F)cc2F)on1)c1ncccn1` [Example 4.084b]: half-maximal inhibition (IC50) required 0.077 µM. The figure for `O=C(N[C@@H]1CCN(C2CCC2)C[C@H]1C(=O)NC1(Cc2ccccc2)COC1)c1cc(-c2ccc(F)cc2F)on1` [Example 4.085] is 0.061 µM. The value for `Cc1cccnc1C(C)(C)CNC(=O)[C@@H]1CN(C2CCC2)CC[C@H]1NC(=O)c1cc(-c2ccc(F)cc2F)on1` [Example 4.086] was 0.472 µM; that for `CC(C)(CNC(=O)[C@@H]1CN(C2CCC2)CC[C@H]1NC(=O)c1cc(-c2ccc(F)cc2F)on1)c1ccccn1` [Example 4.087] was 0.342 µM; that for `Cc1ccccc1C1(NC(=O)[C@H]2CN(C3CCC3)CC[C@@H]2NC(=O)c2cc(-c3ccc(F)cc3F)on2)CC1` [Example 4.088] was 0.138 µM. `O=C(N[C@@H]1CCN(C2CCC2)C[C@H]1C(=O)NC1(c2ccc(F)cc2)COC1)c1cc(-c2ccc(F)cc2F)on1` [Example 4.089] yielded a concentration for half-maximal inhibition (IC50) of 0.299 µM.

In turn, `CC(C)(CNC(=O)[C@@H]1CN(C2CCC2)CC[C@H]1NC(=O)c1cc(-c2ccc(F)cc2F)on1)c1ccccc1Cl` [Example 4.091] displayed an IC50 of 0.134 µM. The figure for `O=C(N[C@@H]1CCN(C2CCC2)C[C@H]1C(=O)NCC1(c2ccc(Cl)cc2)CC1)c1cc(-c2ccc(F)cc2F)on1` [Example 4.092] is 0.126 µM; for `O=C(N[C@@H]1CCN(C2CCC2)C[C@H]1C(=O)NCC1(c2ccccn2)CC1)c1cc(-c2ccc(F)cc2F)on1` [Example 4.093] it is 0.165 µM. The figure for `O=C(N[C@@H]1CCN(C2CCC2)C[C@H]1C(=O)NC1(c2cccc(Cl)c2)COC1)c1cc(-c2ccc(F)cc2F)on1` [Example 4.094] is 0.201 µM; for `CCN1CC[C@H](NC(=O)c2cc(-c3ccc(F)cc3F)on2)[C@@H](C(=O)N[C@H](C)c2cccc(C)n2)C1` [Example 4.095] it is 0.057 µM. Consider `CCN1CC[C@H](NC(=O)c2cc(-c3ccc(F)cc3F)on2)[C@@H](C(=O)NC(C)(C)c2ncccn2)C1` [Example 4.096], for which the concentration for half-maximal inhibition (IC50) was found to be 0.033 µM. `O=C(N[C@H]1CCN(C2CCC2)C[C@@H]1C(=O)NC1(c2cccc(Cl)c2)COC1)c1cc(-c2ccc(F)cc2F)on1` [Example 4.097] returned an IC50 of 0.08 µM. The figure for `C[C@@H](NC(=O)[C@H]1CN(C2CCC2)CC[C@@H]1NC(=O)c1cc(-c2ccc(F)cc2F)on1)c1ncccc1F` [Example 4.098] is 0.018 µM; for `C[C@@H](NC(=O)[C@H]1CN(C2CCC2)CC[C@@H]1NC(=O)c1cc(-c2ccc(F)cc2F)on1)c1ncccc1F` [Example 4.098a] it is 0.012 µM.
